Literature values in patent US8993551B2, “Composition for the regulation of the human immune system and the prevention and treatment of diseases thereof” (priority 2002, dated 2015).
Read-outs that look alike come from different tables or passages of the source.

How the values were obtained:
[1] = of total dietary amount consumed / of intake, mammals
[2] = test system: HT-29 human colon cancer cells
[3] = test system: LNCaP human prostate cancer cells
[4] = test system: CD4 lymphocyte count; settings: AIDS patients
[5] = test system: human breast cancer cells

| SMILES | intestinal absorption [1] | reduction in cell growth [2] | inhibition of prostate cancer cell growth [3] | increase in cell death ([3]; prostate cancer cells) | CD4 lymphocyte count [4] | inhibition of breast cancer cell growth ([5]; after 3 days) | inhibition of breast cancer cell growth ([5]; after 5 days) | increase in rate of cell death ([5]; breast cancer cells) |
| --- | --- | --- | --- | --- | --- | --- | --- | --- |
| CC[C@H](CC[C@@H](C)[C@H]1CC[C@H]2[C@@H]3CC=C4C[C@@H](O)CC[C@]4(C)[C@H]3CC[C@]12C)C(C)C [beta-sitosterol] | ~5% | 55% | 24% | 400% | maintain CD4 lymphocyte count | 66% | 80% | 600% |
| CC(C)CCC[C@@H](C)[C@H]1CC[C@H]2[C@@H]3CC=C4C[C@@H](O)CC[C@]4(C)[C@H]3CC[C@]12C [cholesterol] | 45-54% |  |  |  |  |  |  |  |
